What was measured:
p38 MAP kinase = target: T1, p38 MAP kinase (Homo sapiens, UniProt Q16539); experiment: in vitro inhibition of p-38 (MAP) kinase, transfer of γ-33P from ATP to Myelin Basic Protein; type: biochemical; conditions: phosphorylated recombinant p38 MAP kinase; MBP substrate, γ-33P-ATP; 30° C.
T1 construct: made in house; host or cells: E. coli (co-expressed with SEK-1 and MEKK to phosphorylate p38)
Method: This example illustrate an assay protocol for determining in vitro inhibition of p-38 (MAP) Kinase.
The phosphorylated form of the recombinant p38 MAP kinase was expressed with SEK-1 and MEKK in E. Coli and then purified by affinity chromatography using a Nickel column.
The phosphorylated p38 MAP kinase was diluted in kinase buffer (20 mM 3-(N-morpholino)propanesulfonic acid, pH 7.2, 25 mM β-glycerol phosphate, 5 mM ethylene glycol-bis(beta-aminoethyl ether)-N,N,N′,N′-tetraacetic acid, 1 mM sodium vanadate, 1 mM dithiothreitol, 40 mM magnesium chloride). Test compound dissolved in DMSO or only DMSO (control) was added and the samples were incubated for 10 min at 30° C. The kinase reaction was initiated by the addition of a substrate cocktail containing MBP and γ-^33P-ATP. After incubating for an additional 20 min at 30° C., the reaction was terminated by adding 0.75% phosphoric acid. The phosphorylated MBP was then separated from the residual γ-^33P-ATP using a phosphocellulose membrane (Millipore, Bedford, Mass.) and quantitated using a scintillation counter (Packard, Meriden, Conn.).

T1 sequence (Q16539 whole entry): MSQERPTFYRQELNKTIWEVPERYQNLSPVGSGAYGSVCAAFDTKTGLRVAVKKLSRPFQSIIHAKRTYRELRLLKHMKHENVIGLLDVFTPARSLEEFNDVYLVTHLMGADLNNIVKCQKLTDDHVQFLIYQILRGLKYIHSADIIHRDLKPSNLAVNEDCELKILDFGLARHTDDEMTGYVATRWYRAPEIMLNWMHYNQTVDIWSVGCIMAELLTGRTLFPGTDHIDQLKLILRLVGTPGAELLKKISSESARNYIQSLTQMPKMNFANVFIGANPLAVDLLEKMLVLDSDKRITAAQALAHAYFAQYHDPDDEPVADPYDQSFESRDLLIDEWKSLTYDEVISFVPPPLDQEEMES

IC50 (p38 MAP kinase) | melting point | Structure (SMILES)
20.5 nM | – | Cn1c(=O)c(-c2ccccc2Cl)cc2cnc(N[C@H]3CC[C@H](O)CC3)nc21 [Cpd 1]
41.9 nM | – | Cn1c(=O)c(-c2ccccc2Cl)cc2cnc(NC3(CO)CCCC3)nc21 [Cpd 2]
– | 189 to 191.5 °C | CC(C)(O)Cn1c(=O)c(-c2ccccc2Cl)cc2cnc(NC3CCOCC3)nc21 [Cpd 117]
0.3 nM | 211.7 to 212.6 °C | CCCS(=O)(=O)N1CCC(Nc2ncc3cc(-c4ccccc4C)c(=O)n(C)c3n2)CC1.Cl [Cpd 126]
0.6 nM | 200 to 204 °C | Cc1ccccc1-c1cc2cnc(NC3CCN(S(=O)(=O)CC(F)(F)F)CC3)nc2n(C)c1=O.Cl [Cpd 128]
8.2 nM | 185.3 to 190.1 °C | CCn1c(=O)c(-c2ccccc2Cl)cc2cnc(NC3CCOCC3)nc21.Cl [Cpd 136]
– | 186.6 to 188.1 °C | Cc1ccccc1-c1cc2cnc(NC3CCSCC3)nc2n(C)c1=O [Cpd 140]
6.2 nM | – | Cn1c(=O)c(-c2ccccc2Cl)cc2cnc(N[C@H]3CC[C@H](N)CC3)nc21 [Example 38]
5.1 nM | – | O=c1c(-c2ccccc2Cl)cc2cnc(N[C@H]3CC[C@H](O)CC3)nc2n1Cc1ccccc1 [Example 41]
7.8 nM | 232.1 to 233.4 °C | Cl.N#CCn1c(=O)c(-c2ccccc2Cl)cc2cnc(N[C@H]3CC[C@H](O)CC3)nc21 [Example 44]
– | 227.2 to 230.4 °C | O=c1c(-c2ccccc2Cl)cc2cnc(N[C@H]3CC[C@H](O)CC3)nc2n1CC(F)(F)F [Example 55]
– | 125.7 to 128.1 °C | CN1CCN(Nc2ncc3cc(-c4ccccc4Cl)c(=O)n(C)c3n2)CC1 [Example 85]
4.8 nM | – | Cn1c(=O)c(-c2ccccc2Cl)cc2cnc(NC3CCN(C(N)=O)CC3)nc21 [compound 11]
35.5 nM | – | Cn1c(=O)c(-c2ccccc2Cl)cc2cnc(NC3CCN(CC#N)CC3)nc21 [compound 24]
41.5 nM | – | Cn1c(=O)c(-c2ccccc2Cl)cc2cnc(NC3CCC4(CC3)NC(=O)NC4=O)nc21 (centres unmarked) [compound 29]
30.5 nM | – | Cn1c(=O)c(-c2ccccc2Cl)cc2cnc(N[C@H]3CC[C@H](NS(C)(=O)=O)CC3)nc21 [compound 37]
